Test [1] has as its system oligodendrocyte precursors (OPCs). The test is described as follows: OPC proliferation on laminin-111 or fibronectin with recombinant TG2. The test is classed as cell-based, mouse. From the text: P=0.70 (control vs. TG2-W241A); **P=0.0088 (TG2 vs. TG2-W241A). […] FIG. 16D depicts a Western blot of active RhoA (top panel) and total RhoA (bottom panel) in the corpus callosum (CC) of Tgm2^+/+ and Tgm2^−/− mice. FIG. 16E is a graph showing that the relative level of active RhoA to total RhoA was diminished in the CC of Tgm2^−/− mice compared to […]. *P=0.0207, unpaired t-test, N=3 per genotype. FIG. 16F depicts a Western blot of GPR56^N in the supernatant of HEK 293T cell culture after exposed to either TG2 or TG2+laminin-111 (top panel), GTP-RhoA (middle panel) and total RhoA (lower panel) in HEK 293T cell pellet exposed to either TG2 or TG2+laminin-111. FIG. 16G is a graph showing that released GPR56 NTF was increased in the presence of both TG2 and laminin-111. ***P=0.0002; One-way ANOVA followed by Tukey post-hoc test, F (2,6)=49.66, n.s. P=0.95 (control vs. TG2); ***P=0.0003 (control vs. TG2+laminin-111); ***P=0.0004 (TG2 vs. TG2+laminin-111); N=3 per treatment group. FIG. 16H is a graph showing that the relative level of GTP-RhoA to total RhoA was increased in the presence of both TG2 and laminin-111, corresponding to the increased GPR56 NTF in the supernatant. **P=0.0028; One-way ANOVA followed by Tukey post-hoc test, F (2,6)=18.19, n.s. P=0.75 (control vs. TG2); **P=0.0035 (control vs. TG2+laminin-111); **P=0.0071 (TG2 vs. TG2+laminin-111) N=3 per treatment group. Error bars are mean±s.e.m in FIGS. 16E, 16G, and 16H.
To establish conditions for mechanistic investigation of the function of TG2 on OPC GPR56 during myelination and remyelination, in vitro experiments were performed with wt and Gpr56^−/− oligodendrocyte precursors (OPCs) and human recombinant TG2. […] TG2 is an extracellular protein with intrinsic transamidation activity, capable of cross-linking ECM proteins, including laminin-111 (Aeschlimann et al., J Biol Chem 267, 11316-11321, 1992; Belkin, FEBS J 278, 4704-4716, 2011). […] To confirm that TG2 regulates OPC proliferation in a GPR56-dependent manner, OPCs derived from P5 Gpr56^+/+ or Gpr56^−/− pups were cultured in the presence of laminin-111, with or without recombinant TG2. TG2-associated proliferation was attenuated in Gpr56^−/− OPCs (FIG. 16C), further supporting a GPR56-dependent TG2 function on OPC proliferation.
Oligodendrocyte precursor cells (OPCs) were isolated from mixed male and female P5-8 Gpr56^+/+ or Gpr56^−/− mouse forebrains as previously described (Wang et al., Neuron 29, 603-614, 2001; Watkins et al., Neuron 60, 555-569, 2008). Briefly, OPCs were purified by negatively selecting with mouse anti-Thy 1.2 (Serotec, Cat #MCA02R) and mouse anti-GalC (Millipore, Cat #MAB342), followed by mouse anti-04 (04 hybridoma supernatant) for positive selection. After releasing OPCs from the 04 plate by trypsinization, cells were resuspended in proliferation media containing PDGF-AA and NT-3 (PreproTech). OPCs were plated on coverslips coated with poly-D-lysine before coating with laminin I (R&D Systems, Cat #3400-010-01) or fibronectin (Millipore, Cat #341668) as previously described (Dugas et al., J Neurosci 26, 10967-10983, 2006). After 24 hr, TG2 (2 nM) was added to the cultures and incubated for an additional 24 hr before fixation with 4% PFA and staining for PDGFRα and Ki67.

Another test has as its target T1, GPR56 (Mus musculus, UniProt Q8K209).
T1 construct: expressed in transfected cells; host or cells: HEK 293T
The test is described as follows: TG2 activation assay: GPR56 NTF released into supernatant of HEK 293T cells (Western blot). Conditions: 10 min, HEK 293T transfected with mouse Gpr56. The class given is cell-based. The procedure:
HEK 293T cells were transiently transfected with mouse Gpr56 cDNA. Twenty-four hours after transfection, the cells were subject to serum starvation for 36 hr followed by the addition of recombinant TG2 250 nM with/without recombinant laminin-111 12.5 nM, or acetic acid as control for 10 min. The conditioned media were harvested, filtered, and concentrated as previously described. Equal volumes of the concentrated media were used for Western blot (Luo et al., PLOS One 9, e100043, 2014), while the cell pellets were used for GTP-Rho pull-down assay.

T1 sequence (Q8K209 26-687): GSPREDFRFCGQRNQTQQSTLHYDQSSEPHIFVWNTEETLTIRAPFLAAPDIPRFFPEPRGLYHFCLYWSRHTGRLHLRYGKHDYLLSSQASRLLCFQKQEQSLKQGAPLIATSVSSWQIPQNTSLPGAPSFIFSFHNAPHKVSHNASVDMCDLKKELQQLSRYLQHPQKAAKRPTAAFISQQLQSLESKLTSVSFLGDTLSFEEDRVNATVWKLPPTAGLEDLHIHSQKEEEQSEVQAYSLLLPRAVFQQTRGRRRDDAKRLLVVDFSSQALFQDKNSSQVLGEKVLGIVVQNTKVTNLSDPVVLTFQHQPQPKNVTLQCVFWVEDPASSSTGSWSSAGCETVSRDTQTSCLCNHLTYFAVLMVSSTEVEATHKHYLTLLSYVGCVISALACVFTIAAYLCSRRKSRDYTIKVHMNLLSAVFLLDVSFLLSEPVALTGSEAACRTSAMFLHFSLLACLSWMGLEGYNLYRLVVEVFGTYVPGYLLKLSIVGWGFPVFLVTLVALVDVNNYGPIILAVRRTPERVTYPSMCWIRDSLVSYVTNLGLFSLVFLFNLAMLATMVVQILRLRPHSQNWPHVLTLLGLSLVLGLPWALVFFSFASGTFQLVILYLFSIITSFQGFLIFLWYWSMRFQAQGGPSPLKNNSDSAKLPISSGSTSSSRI

Take Transglutaminase 2 [TG2]: the OPC proliferation result in test [1] (Gpr56−/− OPCs, in the presence of laminin-111, with recombinant TG2) was “attenuated”; in test [1] (Gpr56−/− OPCs, in the presence of laminin-111, with recombinant TG2, listed as recombinant TG2), “failed to respond”; in test [1] (wt OPCs, basal condition (no laminin-111), TG2 2 nM, 24 hr), “failed to augment”; in test [1] (wt OPCs, in the presence of laminin-111, TG2 2 nM, 24 hr) it was “stimulated OPC proliferation”; in test [1] (wt OPCs, in the presence of laminin-111, TG2 2 nM, 24 hr, listed as recombinant TG2), “significantly increased”. Moreover, the “OPC proliferation, wild type TG2 vs enzymatic dead mutant” value in test [1] (versus control, One-way ANOVA, Tukey post-hoc) is on record as “stimulated OPC proliferation”. The “Released GPR56 NTF in supernatant” value in the test with GPR56 (TG2 250 nM alone vs control) was “n.s”; in the test with GPR56 (TG2 250 nM with laminin-111 12.5 nM), “removed the GPR56 NTF”.

(Values after patent publication US12358959B2, “Compositions and methods for oligodendrocyte development” (CHILDREN'S MEDICAL CENTER CORPORATION, priority 2016, dated 2025).)
